Test results taken from ChEMBL document CHEMBL2073906, “Interactions of ofloxacin and erythromycin with the multidrug resistance protein (MRP) in MRP-overexpressing human leukemia cells” (Antimicrob Agents Chemother, 2000).

Columns and labels:
[1] = biological target: T1, Multidrug resistance-associated protein 1 (Homo sapiens, UniProt P33527); assay: TP_TRANSPORTER: increase in Vincristine intracellular accumulation (Vincristine: 0.03 uM, Ofloxacin: 21.7 mg/mL) in HL60R cells: flow cytometric analysis; type: functional, cell-based
[2] = biological target: T1, Multidrug resistance-associated protein 1; assay: TP_TRANSPORTER: increase in Vincristine intracellular accumulation (Vincristine: 0.03 uM, Erythromycin: 14.7 mg/mL) in HL60R cells: flow cytometric analysis; type: functional, cell-based

T1 sequence (P33527 whole entry): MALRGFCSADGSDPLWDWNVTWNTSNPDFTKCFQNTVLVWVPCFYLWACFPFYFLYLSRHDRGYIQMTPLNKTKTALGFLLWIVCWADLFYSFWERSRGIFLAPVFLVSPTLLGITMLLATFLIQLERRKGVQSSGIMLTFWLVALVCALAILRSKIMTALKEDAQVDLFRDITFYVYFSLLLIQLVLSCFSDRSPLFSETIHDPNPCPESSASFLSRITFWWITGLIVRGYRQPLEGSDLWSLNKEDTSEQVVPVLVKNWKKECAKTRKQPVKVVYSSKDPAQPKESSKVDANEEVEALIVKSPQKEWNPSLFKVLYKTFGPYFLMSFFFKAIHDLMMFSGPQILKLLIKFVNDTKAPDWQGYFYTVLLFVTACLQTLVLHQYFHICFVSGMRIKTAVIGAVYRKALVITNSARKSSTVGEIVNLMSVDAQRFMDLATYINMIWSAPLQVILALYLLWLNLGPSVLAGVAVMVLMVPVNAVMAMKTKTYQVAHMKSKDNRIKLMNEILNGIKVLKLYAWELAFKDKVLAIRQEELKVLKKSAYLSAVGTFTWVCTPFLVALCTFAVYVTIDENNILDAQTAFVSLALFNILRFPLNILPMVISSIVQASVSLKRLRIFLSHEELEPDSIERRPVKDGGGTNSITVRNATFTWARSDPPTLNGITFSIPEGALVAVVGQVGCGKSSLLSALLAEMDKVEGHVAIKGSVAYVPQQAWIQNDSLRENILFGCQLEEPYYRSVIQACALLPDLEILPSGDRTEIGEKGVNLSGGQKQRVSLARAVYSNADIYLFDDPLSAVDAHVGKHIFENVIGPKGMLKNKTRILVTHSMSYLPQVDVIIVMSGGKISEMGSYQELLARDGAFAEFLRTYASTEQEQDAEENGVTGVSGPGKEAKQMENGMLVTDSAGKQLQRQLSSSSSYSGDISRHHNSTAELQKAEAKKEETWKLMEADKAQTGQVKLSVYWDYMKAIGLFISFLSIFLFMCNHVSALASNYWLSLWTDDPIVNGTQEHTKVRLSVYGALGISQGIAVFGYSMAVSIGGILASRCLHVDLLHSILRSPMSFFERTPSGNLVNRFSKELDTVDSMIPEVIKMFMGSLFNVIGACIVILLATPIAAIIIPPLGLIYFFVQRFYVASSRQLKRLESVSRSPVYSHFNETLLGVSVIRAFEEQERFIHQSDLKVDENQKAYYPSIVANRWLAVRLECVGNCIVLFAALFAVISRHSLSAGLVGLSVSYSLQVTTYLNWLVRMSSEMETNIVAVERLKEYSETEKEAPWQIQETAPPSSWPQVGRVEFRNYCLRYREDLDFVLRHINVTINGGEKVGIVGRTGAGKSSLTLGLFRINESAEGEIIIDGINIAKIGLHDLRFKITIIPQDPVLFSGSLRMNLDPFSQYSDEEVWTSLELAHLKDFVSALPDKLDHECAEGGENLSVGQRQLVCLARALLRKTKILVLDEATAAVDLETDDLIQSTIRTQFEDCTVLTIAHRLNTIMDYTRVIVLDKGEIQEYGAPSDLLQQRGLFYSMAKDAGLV

Activity [1] | Activity [2] | Structure (SMILES)
0.29 |  | CC1COc2c(N3CCN(C)CC3)c(F)cc3c(=O)c(C(=O)O)cn1c23 (configuration not stated) [OFLOXACIN]
 | 0.16 | CC[C@H]1OC(=O)[C@H](C)[C@@H](O[C@H]2C[C@@](C)(OC)[C@@H](O)[C@H](C)O2)[C@H](C)[C@@H](O[C@@H]2O[C@H](C)C[C@H](N(C)C)[C@H]2O)[C@](C)(O)C[C@@H](C)C(=O)[C@H](C)[C@@H](O)[C@]1(C)O [ERYTHROMYCIN]
